According to US6710075B2, “Therapeutic compounds and methods” (The Government of the State of Sarawak, Malaysia, priority 2000, dated 2004):
pIC50: −log10 of the molar value.

Columns and labels:
[1] = tested on: A549 cells; assay: Cell death as loss of membrane integrity, YOYO-1 uptake; assay type: cell-based; settings: Homo sapiens, 72 h; A549 cells, 3 days, YOYO-1 uptake; read-out: LC50 (the source's name)
From the text: (§1) (a) Table 8 compares the cytostatic and cytotoxic effects of Compound A to three previously identified 1H-cyclopenta[b]benzofuran lignans that lack the dioxanyloxy group at the C6-position. The reference compounds are: Rocaglaol (Reference Compound 1) (Ohse et al., J Nat Prod, 1996, 59(7):650-52); 4′-Demethoxy-3′,4′-methylenedioxyrocaglaol (Reference Compound 2) and Methyl 4′-demethoxy-3′,4′-methylenedioxyrocaglate (Reference Compound 3) (Lee et al., Chem Biol Interact, 1998, 115(3):215-28).

[2] = tested on: THP-1 cells; assay: as above; assay type: cell-based; settings: Homo sapiens, 72 h; THP-1 cells, 3 days, YOYO-1 uptake; read-out: LC50 (the source's name)
From the text: as §1

[3] = tested on: K562 leukemic cells; assay: DNA content analysis (cell cycle) of K562 leukemic cells; assay type: cell-based, human; settings: K562, 10-15 nM, 3 days
Method: K562 cells were cultured for 3 days with the indicated concentration of Compounds A or B then collected and fixed in 70% ethanol prior to staining with propidium iodide and DNA content determined by flow cytometry. The numbers indicate the % of cells in G0/G1, S and G2/M phases of the cell cycle respectively relative to all cells with ≧2N DNA content.

[4] = tested on: A549 cells; assay: Effect on cell cycle arrest and cell death induced by anti-cancer agents, DNA content analysis; assay type: cell-based
Method: A549 cells in 6 well plates were cultured for 3 days in the presence or absence of 10 nM Compound A together with 0.1 μM camptothecin, 10 μM vinblastin, 1 μM paclitaxel or 1 μM staurosporine as indicated. The cells were then collected and fixed in 70% ethanol prior to staining with propidium iodide and DNA content determined by flow cytometry. The numbers indicate the % of cells in the various cell cycle phases relative to all cells with ≧2N DNA content and also the % dead cells (ie. subdiploid ≦2N cells) to the left of the dotted marker that arose during the culture period.
This was examined in more detail using DNA content analysis to specifically measure cell cycle progression and cell death. In this experiment in addition to camptothecin and paclitaxel cells were also treated with vinblastin (another microtubule inhibitor) (Sorger et al., 1997, supra) and staurosporine (a kinase inhibitor) (Gescher, Crit Rev Oncol Hematol., 2000, 34(2):127-35).

[5] = tested on: THP-1 cells; assay: WST-1 reduction by THP-1 cells; assay type: cell-based, human; settings: Homo sapiens
From the text: (§2) (a) Compounds A and B were identified from a bark sample of Aglaia leptantha through their ability to inhibit production of Tumour Necrosis Factor-α (TNF-α) by THP-1 human promonocytic leukemia cells (Tsuchiya, et al, Int. J. Cancer, 1980, 26(2):171-6) activated with lipopolysaccharide (LPS). Table 4 summarises the results comparing the activity of Compounds A and B for inhibition of TNF-α production to their effects on general cell metabolism measured using WST-1 reduction, DNA synthesis and protein synthesis assays for THP-1 cells. […] For comparison, the effects of Compounds A and B on A549 lung epithelial carcinoma cells (Leiber et al, Int. J. Cancer, 1976, 17(1)-62-70) were also measured and the data is also included in Table 4.

[6] = tested on: HL60 human promyelocytic leukemic cells; assay: Monocytic differentiation, CD14 surface antigen expression by flow cytometry; assay type: cell-based; settings: 4 days
Method: This is a morphology highly characteristic of mature macrophages and similar morphological effects were observed when the cells were treated with other known inducers of macrophage differentiation including interferon-γ (IFNγ) or phorbol 12-myristate 13-acetate (PMA). To investigate this further the effects of Compound A on HL60 human promyelocytic leukemic cells (Collins, et al, Nature, 1977, 270:347-9) were examined (Table 11). This widely used cell line is well characterised as a model of human myelomonocytic differentiation (Collins, Blood, 1987, 70(5):1233-44). In this experiment monocytic differentiation was quantitated by measuring CD14 surface antigen expression by flow cytometric analysis CD14, all LPS-binding protein, is expressed on the surface of cells of the myelomonocytic lineage and is normally expressed at very low levels in undifferentiated HL60 cells (Ferrero et al., Blood, 1983, 61(1):171-9).

[7] = tested on: A549 cells; assay: DNA content analysis (cell cycle and viability) of A549 cells, 6 days; assay type: cell-based, human; settings: A549, 10 nM
Method: (§3) A549 cells were cultured for 6 days with the indicated concentration of Compound A or 1 μM paclitaxel then collected and fixed in 70% ethanol prior to staining with propidium iodide and DNA content determined by flow cytometry. The numbers indicate the % of cells in the various cell cycle phases relative to all cells with ≧2N DNA content and also the % dead cells (ie. subdiploid≦2N cells) to the left of the marker that arose during the culture period.
To help identify a potential mechanism for the effects of Compound A, DNA content analysis was performed to determine where in the cell cycle it exerted its effect (FIG. 4). […] This contrasts to the effects of paclitaxel a drug known to act selectively at the G2/M phases of the cell cycle (FIG. 4). As the concentration of Compound A was increased and its cytotoxic effects became evident the proportion of cells in the S and G2/M phases decreased with a corresponding rise in cells in G0/G1 phases. […] Thus, compared to THP-1 cells (see FIG. 2) higher concentrations of Compound A are required to inhibit progression through the G0/G1 phases of the cell cycle in A549 cells.

[8] = tested on: THP-1 cells; assay: Acute DNA synthesis inhibition, [14C] thymidine incorporation, THP-1 cells; assay type: cell-based, human; settings: 1 hour pretreatment + 2 hours label
[9] = tested on: Tumour Necrosis Factor-α (TNF-α); assay: Inhibition of TNF-α production by LPS-activated THP-1 cells (sandwich ELISA); assay type: cell-based, human; settings: 18 hours
From the text: as §2

[10] = tested on: THP-1 cells; assay: DNA content analysis (cell cycle and viability) of THP-1 cells; assay type: cell-based, human; settings: THP-1, 10 nM, 2 days
Method: as §3, with “THP-1” for “A549”, “2” for “6”, “1000 nM” for “1 μM”, “marker (the vertical line)” for “marker”

With `COC(=O)[C@H]1[C@@H](O)[C@@]2(O)c3c(OC)cc(OC4OC(C(O)CO)COC4OC)cc3O[C@@]2(c2ccc(OC)cc2)[C@@H]1c1ccccc1` (single isomer, unassigned) [Compound A] the CC50 [1] was 514 nM, the CC50 [2] was 15 nM and the “cell cycle phase accumulation” value [3] was “characteristic accumulation of cells in G2/M phases of the cell cycle”. The “cell cycle distribution and cell death” value ([4]; A549, 10 nM Compound A alone, three days) was “a minor decrease in cells in G0/G1 with a slight increase in G2/M phase cells with no detectable increase in cell death”, the “effect on cytotoxicity of staurosporine” value ([4]; A549, 10 nM Compound A with 1 μM staurosporine, 3 days) was “little effect on the cytotoxic effects of staurosporine” and the “effect on cell cycle arrest and cytotoxicity of camptothecin, vinblastin and paclitaxel” value ([4]; A549, 10 nM Compound A, 3 days) was “prevented their characteristic cell cycle arrest and significantly inhibited their cytotoxic effects”. For the same compound, the pIC50 ([5]; THP-1, 18 h, THP-1 cells, 18 hours of culture, read-out: IC50 WST-1 Reduction) was 7.52, the pIC50 ([5]; THP-1, 72 h, THP-1 leukemic cells, cultured with compound for 3 days, read-out: IC50 (reduction of WST-1)) was 8.70 and the “% cells expressing CD14” value ([6]; HL60, 5 nM) was 3.3%. For the same compound, the “% cells expressing CD14” value ([6]; HL60, 10 nM) was 5.7%, the “% cells expressing CD14” value ([6]; HL60, 25 nM) was 46.0% and the “% cells expressing CD14” value ([6]; HL60, 50 nM) was 43.0%. For the same compound, the “CD14 expression in viable HL60 cells” value ([6]; doses greater than 10 nM) was “significantly enhanced CD14 expression”, the cell cycle distribution [7] was “a minor decline in the proportion of cells in the G0/G1 phases of the cell cycle with a concomitant increase in cells in the G2/M phases” and the pIC50 ([8]; Homo sapiens, THP-1, THP-1 cells) was roughly 7.15. The pIC50 ([8]; THP-1 cells) was 7.14, the pIC50 [9] was 7.22 and the “cell cycle phase accumulation” value [10] was “caused cells to accumulate in the G0/G1 phases of the cell cycle”. For the same compound, the “accumulation of dead cells” value ([10]; untreated 7%) was 17%.
